# Experimental data: patent US20260191861A1, “INFLAMMASOME AND VEGF INHIBITION FOR RETINAL VASCULAR DISEASES” (University of Virginia Patent Foundation, priority 2022, published 2026)
# Columns and labels:
# [1] = system: participants with diabetic macular edema; assay: Visual acuity (VALS) compared with synthetic controls from the DRCR.net Protocol T study (IPTW, propensity score matching, GEE); format: in vivo, human; settings: for Model-based contrast: change in visual acuity, Lamivudine vs. Aflibercept / Model-based contrast: change in visual acuity, Lamivudine vs. Bevacizumab / Model-based contrast: change in visual acuity, Lamivudine vs. Ranibizumab: IPTW model; for Mixed-effect model: change in visual acuity from baseline, Lamivudine vs Placebo / Mixed-effect model: change in visual acuity from baseline, Lamivudine vs. Aflibercept / Mixed-effect model: change in visual acuity from baseline, Lamivudine vs. Bevacizumab / Mixed-effect model: change in visual acuity from baseline, Lamivudine vs. Ranibizumab: propensity score matching
# From the text: The second analysis included participants from the lamivudine versus placebo trial, along with a synthetic comparator created using data from the DRCR.net Protocol T study. The source of the data is DRCR.net (2018) A Comparative Effectiveness Study of Intravitreal Aflibercept, Bevacizumab and Ranibizumab for Diabetic Macular Edema, retrieved from https://public.jaeb.org/drcrnet/stdy/download/206. The analyses, content, and conclusions presented herein are solely the responsibility of the authors and have not been reviewed or approved by DRCR.net.
# Inclusion criteria for participants from the DRCR.net Protocol T study were based on their similarity to the lamivudine versus placebo trial design. This involved selecting only patients with type 2 diabetes, study eyes with a baseline VALS<69, and complete follow-up visual acuity measurements at weeks 4 and 8.
# Propensity score methods were used to select DRCR.net Protocol T study participants similar to lamivudine-treated patients. Inverse probability treatment weights (IPTW) and propensity score matching were used. To estimate the IPTW weights, a multinomial logistic regression was used to estimate propensity scores using important predictors including baseline visual acuity and baseline central subfield thickness along with age, gender, and duration of diabetes. Weights were calculated as the reciprocal of the estimated propensity score of the actual treatment received. Weights were then truncated at the 99th percentile. For the propensity score matched analysis, lamivudine-treated patients were matched to each DRCR.net Protocol T treatment arm (aflibercept, bevacizumab, ranibizumab) and placebo group, separately. Due to the limited sample size for matching within each group, propensity score models included the most important predictors of acuity change including baseline visual acuity, age and duration of diabetes.
# For the IPTW analysis, a mixed-effects weighted model was fit with subject-specific random effects. […] The model's estimates, confidence intervals (CI), and P values were reported for each predictor. Additionally, model-based contrasts were conducted to compare the change in VALS from baseline between lamivudine and the Protocol T treatments.
# For each propensity score matched group (e.g., lamivudine-bevacizumab, lamivudine-aflibercept), a mixed effect model was fit estimating the change in visual acuity from baseline. Subject specific random effect was included along with fixed effect predictors: treatment group, baseline VALS, central subfield thickness, eye (left vs right), age, sex, race and type 2 diabetes duration.
# (§1) Secondary outcomes included the change in central subfield thickness, the percentage of eyes with an improvement in VALS of 15 or more, the correlation between improvements in visual acuity and central subfield thickness, and systemic and ocular adverse events. Change in central subfield thickness was estimated using mixed-effects models, similar to the VALS analysis. To analyze a VALS improvement of at least 15 letters, logistic regression using generalized estimating equations (GEEs) was specified with an exchangeable correlation matrix. Model-based contrasts were estimated to make pairwise treatment comparisons.
# [2] = system: participants with diabetic macular edema; assay: Systemic and ocular adverse events in the lamivudine versus placebo trial; format: in vivo, human
# From the text: If the participant developed high-risk proliferative diabetic retinopathy or had to undergo any ocular surgery during the study period, they would be excluded. Patients were monitored for adverse events by the assessing physician, and new laboratory tests could be performed at the physician's discretion.
# as §1
# [3] = system: photoreceptors (TUNEL+ cells in the ONL); assay: RRD model: TUNEL assay of the retinal outer nuclear layer; format: in vivo, mouse; settings: day 3 RRD, equimolar IP doses twice daily (K-9H 60 mg/kg, 3TC 50 mg/kg)
# Procedure: All experiments involving animals were approved by the University of Virginia Institutional Animal Care and Use Committee (IACUC) and adhered to the Association for Research in Vision and Ophthalmology (ARVO) Statement for the Use of Animals in Ophthalmic and Vision Research. Animal subjects were male and female mice aged 6 to 10 weeks. Wild type C57BL/6J mice were obtained from the Jackson Laboratory (Bar Harbor, ME, USA). To anesthetize mice for study procedures, ketamine hydrochloride (100 mg/kg; Ft. Dodge Animal Health, Overland Park, KS, USA) and xylazine (10 mg/kg; Phoenix Scientific, St. Joseph, MO, USA) were delivered by intraperitoneal (IP) injection. Pupils were dilated with topical 1% tropicamide and 2.5% phenylephrine (Alcon Laboratories, Ft. Worth, TX, USA).
# RRD model was established by subretinal injection (SRI) of 3 μl 1% carboxymethyl cellulose (CMC; Refresh Liquigel, Allergan, Irvine, CA, USA).
# NRTIs and K-9 were delivered via intraperitoneal (IP) injection in equimolar amounts. […] Kamuvudine K-9 (3-methyl-3TC, MW=273 g/mol) was administered either at a low dose (K-9L; 90 mg/kg daily) or a high dose (K-9H; 60 mg/kg twice daily, equimolar to NRTI doses). IP injection of phosphate buffered saline (PBS) was used as control.
# Retinal cross cryosections at a thickness of 10 μm were stained with TUNEL (TdT-mediated dUTP nick-end labeling) using the In Situ Cell Death Detection Kit (Roche Diagnostics, Indianapolis, IN, USA) according to the manufacturer's′ instructions. The sections were wet-mounted with ProLong anti-fade reagent with DAPI (P36935, ThermoFisher Scientific, Waltham, MA, USA) and visualized using an A1R laser confocal microscope (Nikon, Tokyo, Japan). Fourteen representative sections, including the optic nerve, were used per treatment group. To calculate the number of TUNEL+ cells in the outer nuclear layer (ONL), the retina analysis toolkit of ImageJ (2.1.0; NIH, Bethesda, MD, USA) was used.
# [4] = ocular adverse event, of 16 eyes
# [5] = systemic adverse event, of 10 subjects
structure (smiles),measurement,setting,value
Nc1ccn([C@@H]2CS[C@H](CO)O2)c(=O)n1 [Lamivudine],"Model-based contrast: change in visual acuity, Lamivudine vs. Aflibercept",[1],3.73
same,"Model-based contrast: change in visual acuity, Lamivudine vs. Bevacizumab",[1],6.83
same,"Model-based contrast: change in visual acuity, Lamivudine vs. Ranibizumab",[1],5.04
same,"Mixed effect model: change from baseline visual acuity, treatment estimate (ref: Placebo)",[1]; IPTW model with synthetic controls,12.15
same,"Mixed effect model: change from baseline visual acuity, treatment estimate (ref: Placebo)","[1]; IPTW model with synthetic controls, listed as lamivudine",12.2
same,"Model-based contrast: change in visual acuity, Lamivudine vs. Aflibercept",[1]; listed as lamivudine,3.7
same,"Model-based contrast: change in visual acuity, Lamivudine vs. Bevacizumab",[1]; listed as lamivudine,6.8
same,"Model-based contrast: change in visual acuity, Lamivudine vs. Ranibizumab",[1]; listed as lamivudine,5.0
same,"Mixed effect model: change from baseline visual acuity, treatment estimate (ref: Placebo)",[1]; Original (unweighted) model with synthetic controls,11.19
same,"Mixed-effect model: change in visual acuity from baseline, Lamivudine vs Placebo",[1],10.88
same,"Mixed-effect model: change in visual acuity from baseline, Lamivudine vs. Aflibercept",[1],2.33
same,"Mixed-effect model: change in visual acuity from baseline, Lamivudine vs. Bevacizumab",[1],8.95
same,"Mixed-effect model: change in visual acuity from baseline, Lamivudine vs. Ranibizumab",[1],7.24
same,"Mixed-effect model: change in visual acuity from baseline, Lamivudine vs Placebo",[1]; listed as lamivudine,10.9
same,"Mixed-effect model: change in visual acuity from baseline, Lamivudine vs. Aflibercept",[1]; listed as lamivudine,2.3
same,"Mixed-effect model: change in visual acuity from baseline, Lamivudine vs. Bevacizumab",[1]; listed as lamivudine,9
same,"Mixed-effect model: change in visual acuity from baseline, Lamivudine vs. Ranibizumab",[1]; listed as lamivudine,7.3
same,Endophthalmitis - (%),[2]; [4],(0%)
same,Endophthalmitis - N,[2]; [4],0
same,Increase in intraocular pressure ≥10 mm Hg from baseline - (%),[2]; [4],(0%)
same,Increase in intraocular pressure ≥10 mm Hg from baseline - N,[2]; [4],0
same,Intraocular inflammation* - (%),[2]; [4],(0%)
same,Intraocular inflammation* - N,[2]; [4],0
same,Retinal detachment - (%),[2]; [4],(0%)
same,Retinal detachment - N,[2]; [4],0
same,Subconjunctival hemorrhage - (%),[2]; [4],(18.8%)
same,Subconjunctival hemorrhage - N,[2]; [4],3
same,Traumatic cataract - (%),[2]; [4],(0%)
same,Traumatic cataract - N,[2]; [4],0
same,Vitreous hemorrhage - (%),[2]; [4],(0%)
same,Vitreous hemorrhage - N,[2]; [4],0
same,Abdominal pain - (%),[2]; [5],(0%)
same,Abdominal pain - N,[2]; [5],0
same,Alopecia - (%),[2]; [5],(0%)
same,Alopecia - N,[2]; [5],0
same,Arthralgia - (%),[2]; [5],(0%)
same,Arthralgia - N,[2]; [5],0
same,Diarrhea - (%),[2]; [5],(10%)
same,Diarrhea - N,[2]; [5],1
same,Disphoresis - (%),[2]; [5],(10%)
same,Disphoresis - N,[2]; [5],1
same,Fatigue - (%),[2]; [5],(10%)
same,Fatigue - N,[2]; [5],1
same,Headache - (%),[2]; [5],(20%)
same,Headache - N,[2]; [5],2
same,Myalgia - (%),[2]; [5],(0%)
same,Myalgia - N,[2]; [5],0
same,Nausea or vomiting - (%),[2]; [5],(20%)
same,Nausea or vomiting - N,[2]; [5],2
same,Pruritus - (%),[2]; [5],(20%)
same,Pruritus - N,[2]; [5],2
same,Skin rash - (%),[2]; [5],(0%)
same,Skin rash - N,[2]; [5],0
same,ocular adverse events,[2]; week 4,no ocular adverse events
same,subconjunctival hemorrhage after intravitreous injection,[2]; week 8,three
same,degree of photoreceptor protection,[3],38%+10%
